From patent US11771662B2, “Analgesic formulation for control of pain in dogs” (Kansas State University Research Foundation, priority 2017, dated 2023)
Like-named read-outs stand apart in the source and are kept apart here.

What was measured:
[1] = Plasma methadone, naltrexone and naltrexone metabolites, multiple oral doses (Example III); assay type: in vivo, dog; conditions: multiple oral doses of methadone/fluconazole/naltrexone formulation
Text: Twelve healthy Beagle dogs were divided into two groups of 6 each in a parallel study design. […] Group 1 simulated a patient dropped off the night before surgery, while Group 2 simulated a patient dropped off in the morning for same day early afternoon surgery. Rectal temperature was monitored as a marker of central opioid effects throughout the study and von Frey thresholds were obtained to assess the antinociceptive effects.

[2] = Plasma methadone, fluconazole, naltrexone and naltrexone metabolite concentrations (Example IV)
Text: Anesthesia was monitored by licensed veterinary technicians.

[3] = group administered naltrexone 0.25 mg/kg PO with methadone and fluconazole
Text: (§1) Twelve healthy Beagle dogs were divided into two groups of 6 each in a parallel study design. […] Rectal temperature was monitored as a marker of central opioid effects throughout the study.

healthy Beagle dogs = assay: Rectal temperature as marker of central opioid effects, methadone/fluconazole with or without naltrexone (Example II); assay type: in vivo, dog; conditions: naltrexone 0.25 mg/kg PO added to methadone 1 mg/kg and fluconazole 5 mg/kg PO
Text: as §1

O=C1CC[C@@]2(O)[C@H]3Cc4ccc(O)c5c4[C@@]2(CCN3CC2CC2)[C@H]1O5 [naltrexone]
Plasma detection of analyte relative to LOQ of the assay (1 ng/mL) [1]: rarely detected above the LOQ
Plasma detection of analyte ([2]; any group): not detected in any plasma sample from any group
Plasma detection of analyte relative to LOQ of the assay (1 ng/mL) [3]: rarely detected above the LOQ
Effect of addition of naltrexone on central opioid effects of methadone with fluconazole (healthy Beagle dogs): did not affect the central opioid effects

Oc1ccc2c3c1O[C@H]1[C@H](O)CC[C@@]4(O)[C@@H](C2)N(CC2CC2)CC[C@]314 [β-naltrexol]
Highest measured plasma concentration ([2]; oral methadone groups): 1.7 ng/mL

O=C(O)[C@H]1O[C@@H](Oc2ccc3c4c2O[C@H]2C(=O)CC[C@@]5(O)[C@@H](C3)N(CC3CC3)CC[C@]425)[C@H](O)[C@@H](O)[C@@H]1O [naltrexone glucuronide]
Plasma detection of analyte [1]: detected in both groups
Plasma detection of analyte ([2]; oral methadone groups): measured in most of the samples
Plasma detection of analyte [3]: detected
